Data: article PMC11013284, “Chemoselective Synthesis and Anti-Kinetoplastidal Properties of 2,6-Diaryl-4H-tetrahydro-thiopyran-4-one S-Oxides: Their Interplay in a Cascade of Redox Reactions from Diarylideneacetones” (Molecules, 2024)
Entries after “also recorded” stand apart in the source; their conditions may differ. Like-named read-outs stand apart in the source and are kept apart here.

What was measured:
[1] = tested on: Trypanosoma brucei brucei trypomastigotes, suramin-sensitive strain (Squib 427); test: T. b. brucei growth/viability assay (resazurin); assay type: cell-based; conditions: for IC50: 3 days; for anti-trypanosomal activity (IC50): Trypanosoma (T. cruzi and T. b. brucei)
Procedure: After 3 days, parasite growth was assessed fluorimetrically following the addition of resazurin. After 24 h at 37 °C, fluorescence was measured (λex = 550 nm, λem = 590 nm). The results were expressed as a percentage reduction in parasite growth/viability compared to control wells, and a 50% inhibitory concentration (IC50) was calculated.

[2] = tested on: Trypanosoma cruzi (Tulahuen CL2 β-galactosidase) amastigotes in hMRC-5SV2 cells; test: T. cruzi intracellular amastigote assay (β-galactosidase/CPRG); assay type: cell-based
Procedure: A nifurtimox-sensitive strain (Tulahuen CL2 β-galactosidase) in human lung fibroblast hMRC-5SV2 cells was incubated for 7 days in 96-well plates with five concentrations of compound (64, 16, 4, 1, and 0.25 μM). The parasitic burden was evaluated through the activity of the enzyme β-galactosidase on a specific chlorophenol red ß-D-galactopyranoside (CPRG) substrate. Live parasites converted the yellow-orange CPRG substrate into the red chromophore chlorophenol red, yielding a dark-red solution, which could be quantitatively measured at 540 nm after 4 h of incubation at 37 °C. The results were expressed as a percentage reduction in parasite growth/viability compared to control wells, and an IC50 was calculated.

[3] = Solubility observations (crystals in assay, insolubility in solvents); assay type: physicochemical; conditions: for presence of crystals, concentration range / presence of crystals (asterisk mark): noted in L. donovani assay, Table S5
[4] = tested on: L. infantum (MHOM/MA(BE)/67) amastigotes in primary peritoneal mouse macrophages; test: L. infantum intramacrophage amastigote assay (microscopic burden); assay type: cell-based, Leishmania infantum; conditions: 5 days, mouse macrophages as host
Procedure: L. infantum (MHOM/MA(BE)/67 strain) amastigote were incubated for 5 days in 96-well plates with five concentrations of compound (64, 16, 4, 1, and 0.25 μM). Primary peritoneal mouse macrophages were used as host cells. Parasite burdens (i.e., the number of amastigotes per macrophage) were microscopically assessed. The results were expressed as a percentage reduction in parasite burden compared to untreated control wells, and an IC50 was calculated.

[5] = tested on: human diploid embryonic lung fibroblast hMRC-5SV2 cells; test: in vitro
Procedure: (§1) The cytotoxicity of compounds was evaluated toward human diploid embryonic lung fibroblast hMRC-5SV2 cells, derived from fetal lung tissue and first described in 1970. hMRC-5SV2 cells were cultured in 96-well plates with five concentrations of the compound (64, 16, 4, 1, and 0.25 μM). After 3 days of incubation, the cell viability was assessed fluorimetrically after the addition of resazurin, and fluorescence was measured (λex = 550 nm, λem = 590 nm). The results were expressed as a percentage reduction in cell growth/viability compared to control wells, and a 50% cytotoxic concentration (CC50) was calculated. The reference cytotoxic drugs were tamoxifen or ivermectin. Additionally, toxicity toward mouse macrophages was qualitatively observed. Three concentrations were included (64, 16, and 4 µM), and the range of toxicity was ranked from the least toxic to the most toxic compound.

murine macrophages = test: Qualitative toxicity toward mouse macrophages; conditions: concentration at which toxicity was observed; 64, 16 and 4 µM tested
Procedure: as §1

in vitro = conditions: human, CC50 hMRC-5 (cytotoxicity)
Procedure: as §1

[6] = tested on: WT LV9 L. donovani intramacrophage amastigotes; test: L. donovani intramacrophage amastigote assay; assay type: cell-based, Leishmania donovani; conditions: WT LV9, ± SD in Tables S5/S6, read-out: IC50 L. donovani intramacrophage amastigotes
[7] = intracellular amastigotes, 7 days, read-out: IC50 T. cruzi intramacrophage amastigotes (converted)
[8] = Trypanosoma cruzi, TULAHUEN, 168 h, intracellular amastigotes, 7 days, read-out: IC50 T. cruzi intramacrophage amastigotes (converted)
[9] = Leishmania infantum, Macrophage, 120 h
[10] = bracketed value after the intramacrophage IC50 (Table S5), Table S6

Compound | IC50 [1] [µM] | IC50 [2, 7] [µM] | IC50 [4] [µM] | IC50 ([1]; Trypanosoma brucei, 72 h) [µM] | IC50 [2, 8] [µM] | Toxicity (T) observed toward murine macrophages (murine macrophages) | IC50 [4, 9] [µM] | CC50 at 3 days (in vitro) [µM] | IC50 [6] [µM] | observed macrophage death / lysis observed at (macrophages; [10]) [µM] | also measured
O=C1CC(c2c(Cl)cccc2Cl)SC(c2c(Cl)cccc2Cl)C1 (racemic) [2h] | > 64 | > 64 | 2 | – | – | – | – | – | – | – | presence of crystals, concentration range [3]: 12.5 to 200 µM; CC50 [5]: > 64 µM
COc1cc(Br)c(OC)c(/C=C/C(=O)/C=C/c2cc(OC)cc(Br)c2OC)c1 [1q] | – | – | – | 0.9 | 0.9 | T1 (T1 = 64) | 10.4 | 0.8 | – | – | –
COc1ccc(/C=C/C(=O)/C=C/c2ccc(OC)c(OC)c2)cc1OC [1j] | – | – | – | 2.1 | 2.1 | T1 (T1 = 64) | 30 | 6.9 | – | – | –
O=C1CC(c2ccccn2)[S+]([O-])C(c2ccccn2)C1 (mixture of isomers) [3′w, (syn/anti)-cis-2,6-Di-(pyridin-2-yl)-4H-tetra-hydrothiopyran-4-one 1-oxide, as diastereoisomeric mixture] | – | – | – | 0.1 | 0.5 | T3 (T3 = 4) | 2 | 8.1 | – | – | IC50 ([6]; Leishmania donovani): 2.5 µM
CN(C)c1ccc(/C=C/C(=O)/C=C/c2nccs2)cc1 [1’s] | 0.4 | 11 | 38 | – | – | – | – | – | 11.5 ± 0.6 | > 37.5 | presence of crystals (asterisk mark) [3]: * (presence of crystals at > 50 µM); CC50 [5]: > 64 µM
COc1ccc(C2CC(=O)CC(c3ccc(OC)cc3)S2(=O)=O)cc1 (racemic) [4d, (±)-trans-2,6-Di-(p-anisyl)-4H-tetrahydrothiopyran-4-one 1,1-dioxide] | 43.3 | – | ≥ 64 | – | ≥ 64 | – | – | ≥ 64 | – | – | anti-trypanosomal activity (IC50) [1]: almost inactive; also recorded: completely inactive; IC50 ([6]; Leishmania donovani): > 100 µM; solubility (observation) ([3]; almost all types of solvent, even at very low concentrations): Solubility issues; also recorded: insolubility
COc1ccc(C2CC(=O)CC(c3ccc(OC)cc3)[S+]2[O-])cc1 (stereo not drawn) [3″d, (anti)- and (syn)-cis-2,6-Di-(p-anisyl)-4H-tetrahydro-thiopyran-4-one 1-oxides] | 2.4 | 8.5 | 27.3 | – | – | T1 (T1 = 64) | – | – | 35 | – | IC50 T. cruzi intramacrophage amastigotes ([2]; intracellular amastigotes, 7 days): moderate potency; IC50 L. infantum intramacrophage amastigotes [4]: moderate potency; CC50 ([5]; human, 3 days): 32 µM
O=C(/C=C/c1ccco1)/C=C/c1ccco1 [1z] | – | – | – | 7.6 | 39.9 | T1 (T1 = 64) | 32.5 | > 64 | – | – | IC50 ([6]; Leishmania donovani): 14 ± 2.6 µM; observed macrophage death / lysis observed at (macrophages): > 50 µM
O=C1CC(c2ccccn2)S(=O)(=O)C(c2ccccn2)C1 (racemic) [4w, (±)-trans-2,6-Di-(pyridin-2-yl)-4H-tetrahydrothiopyran-4-one 1,1-dioxide] | 0.5 | – | – | – | 0.4 | T3 (T3 = 4) | 2 | 7.9 | 5 | – | anti-trypanosomal activity (IC50) [1]: high nanomolar range; IC50 L. infantum intramacrophage amastigotes [4]: excellent potency
COc1ccc(OC)c(/C=C/C(=O)/C=C/c2cc(OC)ccc2OC)c1 [1m] | – | – | – | 0.8 | 1.1 | T1 (T1 = 64) | 10.4 | 1 | – | – | –
Cc1ccc(/C=C/C(=O)/C=C/c2ccc(C)o2)o1 [1za] | – | – | – | 8.2 | 2.2 | T2 (T2 = 16) | 8.1 | 5.4 | – | – | –
Cc1ccccc1C1CC(=O)CC(c2ccccc2C)S1 (racemic) [2b] | > 64 | ≥ 64 | 43.1 | – | – | – | – | – | 14.5 ± 1.9 | > 50 | presence of crystals (asterisk mark) [3]: ** (presence of crystals at > 100 µM); CC50 [5]: > 64 µM
Cc1ccc(C2CC(=O)CC(c3ccc(C)cc3)S2)cc1 (racemic) [2c] | 0.8 | 3.7 | > 64 | – | – | – | – | – | 13.5 ± 2.8 | 200 | presence of crystals (asterisk mark) [3]: ** (presence of crystals at > 100 µM); CC50 [5]: 24.2 µM
O=C(/C=C/c1ccccc1)/C=C/c1ccccc1 [1a] | – | – | – | 0.4 | – | – | 20.3 | 52.9 | – | – | IC50 ([2]; Trypanosoma cruzi, TULAHUEN, 168 h, read-out: IC50 T. cruzi intramacrophage amastigotes): 16 µM; IC50 ([6]; Leishmania donovani): > 100 µM; presence of crystals, concentration range [3]: 12.5 to 200 µM; observed macrophage death / lysis observed at (macrophages): 200 µM
O=C1CC(c2ccccn2)[S+]([O-])C(c2ccccn2)C1 (stereo not drawn) [3w, (±)-trans-2,6-Di-(pyridin-2-yl)-4H-tetrahydrothiopyran-4-one 1-oxide] | – | – | – | 0.1 | 0.8 | T3 (T3 = 4) | 2 | 8 | – | – | IC50 ([6]; Leishmania donovani): 25 µM
Cc1ccc(/C=C/C(=O)/C=C/c2ccc(C)cc2)cc1 [1c] | – | – | – | 9.3 | 41.9 | – | > 64 | 32.5 | – | – | presence of crystals, concentration range [3]: 25 to 100 µM
O=C1CC(c2ccc(Cl)cc2)SC(c2ccc(Cl)cc2)C1 (racemic) [2f] | 27.4 | > 64 | 33.2 | – | – | – | – | – | 16.1 ± 1.4 | > 75 | presence of crystals (asterisk mark) [3]: * (presence of crystals at > 50 µM); CC50 [5]: > 64 µM
COc1ccc(/C=C/C(=O)/C=C/c2ccccc2)cc1 [1’h] | – | – | – | – | – | – | – | – | 17.4 ± 1.9 | > 37.5 | presence of crystals (asterisk mark) [3]: ** (presence of crystals at > 100 µM)
O=C1CC(c2ccccn2)S(=O)(=O)C(c2ccccn2)C1 (stereo not drawn) [4′w, cis-2,6-Di-(pyridin-2-yl)-4H-tetrahydrothiopyran-4-one 1,1-dioxide] | 0.1 | 0.4 | 2 | – | – | T3 (T3 = 4) | – | – | 1.6 | – | anti-trypanosomal activity (IC50) [1]: high nanomolar range; IC50 L. infantum intramacrophage amastigotes [4]: excellent potency; CC50 ([5]; human, 3 days): 7.5 µM
COc1ccc(/C=C/C(=O)/C=C/c2ccc3ccccc3c2)cc1 [1’j] | – | – | – | – | – | – | – | – | 58.2 ± 8 | > 150 | presence of crystals (asterisk mark) [3]: ** (presence of crystals at > 100 µM)
Cc1ccc(/C=C/C(=O)/C=C/c2ccccc2)cc1 [1’a] | 0.5 | 2.6 | 32.5 | – | – | – | – | – | – | – | presence of crystals, concentration range [3]: 3.1 to 200 µM; CC50 [5]: 47 µM
O=C1CC(c2ccccc2)SC(c2ccccc2)C1 (racemic) [2a] | – | – | – | – | – | – | – | – | > 100 | 200 | presence of crystals, concentration range [3]: 6.25 to 200 µM
O=C(/C=C/c1ccccn1)/C=C/c1ccccn1 [1w] | – | – | – | 0.03 | 0.3 | T3 (T3 = 4) | 0.4 | 1.9 | – | – | –
CC(=O)Nc1ccc(/C=C/C(=O)/C=C/c2ccc(NC(C)=O)cc2)cc1 [1v] | 0.5 | 10.2 | 8.1 | – | – | – | – | – | > 50 | 100 | CC50 [5]: 34 µM
